In test [1] the test system is ovariectomized rats. Briefly: Serum osteocalcin by ELISA in ovariectomized rats. In kind it is in vivo, Sprague-Dawley female rats. Conditions: daily drug (15 mg/kg oral, day one through day five of each week), FIG. 4. As for the experimental part:
(§1) The Sprague-Dawley female rats (100-125 gram, about 12 weeks old) were purchased from Taconic (Hudson, N.Y.). They were divided into 5 groups of 8 rats each. Four groups were ovariectomized, and one group was sham-operated. The rats were treated in the following manner: Group 1 ovariectomized rats were orally administered day one through day five of each week with 15 mg/kg tris(8-quinolinolato)gallium(III) (“daily”); Group 2 ovariectomized rats were treated with 75 mg/kg tris(8-quinolinolato)gallium(III) on day one of each week (“weekly”); Group 3 ovariectomized rats were treated with 38 mg/kg Ga(NO3)3 on day one of each week (“weekly”); Group 4 ovariectomized rats were treated with vehicle only (0.1% carboxymethylcellulose); Group 5 rats were sham-operated and were administered with vehicle only (0.1% carboxymethylcellulose). At the end of the experiment (32 days after the first administration of the compounds), the animals were anesthetized. Areal bone mineral density (BMD) and bone mineral content (BMC) were measured for the tibiae by dual-energy X-ray absorptiometry using an X-ray pixiMUS mouse densitometer.
Blood was drawn from the rats and left at room temperature for at least 30 minutes before centrifuging at 200×g for 10 minutes to separate sera. Serum was used for the measurement of serum markers including osteocalcin. Osteocalcin was measured by ELISA. […]
A general note: An ELISA detects its analyte on a solid surface through an enzyme-linked reagent.

The next test concerns TRAP gene expression. The experiment in a line: Osteoclast marker gene expression by real time RT-PCR: TRAP. The class given is cell-based, mouse (C57BL/6). Conditions: osteoclasts treated with drug vs DMSO; FIG. 2. As for the experimental part:
(§2) Mouse bone marrow cells were flushed out from femora and tibiae of two 1-2-month old mice (C57BL/6), plated in culture medium (alpha MEM supplemented with 10% heat-inactivated fetal bovine serum, 100 international units/ml penicillin, 100 μg/ml streptomycin, and 2 mM L-glutamine) in a 100-mm dish, and incubated at 37° C. in 5% CO2 overnight. The next day, the non-adherent cells were pelleted and seeded at a density of 200,000 cells/cm^2. Then the osteoclast precursors were cultured in the presence of sRANKL (30 ng/ml) and M-CSF (30 ng/ml), and were treated with either tris(8-quinolinolato)gallium(III) or GaNO3 or DMSO (as a control). The medium was changed at day 3 to obtain mature osteoclasts at day 6. […] At the end of the treatment, the osteoclast preparations were stained for TRAP activity using a leukocyte acid phosphatase kit from Sigma and counted for TRAP-staining multinucleated cells. […] The number of cells having more than 3 nuclei was counted.
(§3) RNA was also isolated for gene expression analysis of osteoclast marker genes (TRAP, cathepsin K and NFAT2). Total RNA was extracted from osteoclasts treated with DMSO or tris(8-quinolinolato)gallium(III), and mRNAs were measured using real time RT-PCR. The relative levels of mRNAs were normalized to β-actin and then expressed as fold stimulation over DMSO-treated cells.
(In general: Real-time PCR tracks product formation cycle by cycle.)

The subject of test [2] is osteoclast precursors (mouse bone marrow cells). Briefly: Osteoclast differentiation/formation: count of TRAP-staining multinucleated cells from osteoclast precursors cultured with sRANKL and M-CSF. The settings on record: 0.2 nM to 100 μM, day 6, TRAP-stained cells with more than 3 nuclei; p<0.05 compared with DMSO and GaNO3 (3.9 μM, 39 μM); FIG. 1. The class given is cell-based, mouse (C57BL/6). The procedure:
Mouse bone marrow cells were flushed out from femora and tibiae of two 1-2-month old mice (C57BL/6), plated in culture medium (alpha MEM supplemented with 10% heat-inactivated fetal bovine serum, 100 international units/ml penicillin, 100 μg/ml streptomycin, and 2 mM L-glutamine) in a 100-mm dish, and incubated at 37° C. in 5% CO2 overnight. The next day, the non-adherent cells were pelleted and seeded at a density of 200,000 cells/cm^2. Then the osteoclast precursors were cultured in the presence of sRANKL (30 ng/ml) and M-CSF (30 ng/ml), and were treated with either tris(8-quinolinolato)gallium(III) or GaNO3 or DMSO (as a control). The medium was changed at day 3 to obtain mature osteoclasts at day 6. For treatment with tris(8-quinolinolato)gallium(III), a drug stock solution prepared by dissolving tris(8-quinolinolato)gallium(III) in DMSO was added to the cell cultures to arrive at final concentrations of 0.2 nM, 2 nM, 0.02 μM, 0.2 μM, 2 μM, 20 μM, 50 μM, or 100 μM. At the end of the treatment, the osteoclast preparations were stained for TRAP activity using a leukocyte acid phosphatase kit from Sigma and counted for TRAP-staining multinucleated cells. Specifically, TRAP staining was performed and five areas of each well were photographed. The number of cells having more than 3 nuclei was counted.

Test [3] has as its system cathepsin K gene expression. Briefly: Osteoclast marker gene expression by real time RT-PCR: cathepsin K. In kind it is cell-based, mouse (C57BL/6). Conditions: osteoclasts treated with drug vs DMSO; FIG. 2. The procedure: as §2, §3
Test [4] concerns ovariectomized rats. Briefly: Tibial bone mineral density by dual-energy X-ray absorptiometry in ovariectomized rats. In kind it is in vivo, Sprague-Dawley female rats. The settings on record: 15 mg/kg oral, day one through day five of each week (daily), 32 days after first administration; FIG. 3. The procedure: as §1
Another test deals with NFAT2 gene expression. The experiment in a line: Osteoclast marker gene expression by real time RT-PCR: NFAT2. Conditions: osteoclasts treated with drug vs DMSO; FIG. 2. In kind it is cell-based, mouse (C57BL/6). The procedure:
as §2, §3

With `[Ga+3].[O-]c1cccc2cccnc12.[O-]c1cccc2cccnc12.[O-]c1cccc2cccnc12` [tris(8-quinolinolato)gallium(III)], the “serum osteocalcin compared to ovariectomized rats treated with vehicle only” value in the test with ovariectomized rats [1] was “significantly associated with reduced serum osteocalcin”. Also, the “TRAP gene expression (mRNA normalized to β-actin, fold over DMSO-treated cells)” value in the test on TRAP gene expression is recorded as “significantly inhibited”. For the same compound, the “fusion of osteoclast precursors into multinucleated cells (osteoclast differentiation/formation)” value in test [2] is listed as “significantly inhibits”. The “cathepsin K gene expression (mRNA normalized to β-actin, fold over DMSO-treated cells)” value in test [3] was “significantly inhibited”. Also, the “bone mineral density (tibiae) compared to ovariectomized untreated rats” value in the test on ovariectomized rats [4] is recorded as “increased bone mineral density”. The “NFAT2 gene expression (mRNA normalized to β-actin, fold over DMSO-treated cells)” value in the test with NFAT2 gene expression was “significantly inhibited”.
